Experimental data as given in patent US10105357B2, “Indication of antibiotic drugs for preparation of cancer inhibition pharmaceutical composition” (LAUNX BIOMEDICAL CO., LTD., priority 2014, dated 2018).
Where a name gives a salt, the structure may show the parent alone. Read-outs that look alike come from different tables or passages of the source. Positions of bridges follow the written chain, without caps; N, C: chain ends. Non-standard residues stand in square brackets, D forms with d. Residues, ends and D or L forms follow the SMILES beside them. *: point of attachment. Ileψ(thiazoline)Cys = CC[C@H](C)[C@H](N)C1=N[C@H](C(=O)*)CS1; dOrn = NCCC[C@@H](N)C(=O)O

Tests used:
Format in all cases: cell-based, human
[1] = test system: AGS (Gastric Adenocarcinoma); experiment: Cell viability analysis, gastric cancer AGS; details: Homo sapiens, 72 h
[2] = test system: A549 (Lung Adenocarcinoma); experiment: Cell viability analysis, lung cancer A549; details: Homo sapiens, A549, 72 h
[3] = test system: HL-60 (Acute Promyelocytic Leukemia); experiment: Cell viability analysis, leukemia HL-60; details: Homo sapiens, HL-60, 72 h
[4] = test system: LoVo (Colorectal Adenocarcinoma); experiment: Cell viability analysis, colon cancer LoVo; details: Homo sapiens, LoVo, 72 h, read-out: cell viability (survival rate), LoVo, drug 10 μM, 72 hours, WST-1, OD450 nm
[5] = test system: HepG2 (Hepatocellular Carcinoma); experiment: Cell viability analysis, hepatic cancer HepG2; details: Homo sapiens, HepG2, 72 h
[6] = test system: HI650 (Lung Adenocarcinoma); experiment: Cell viability analysis, lung cancer HI650; details: Homo sapiens, NCI-H1650, 72 h
[7] = test system: MCF7 (Mammary Gland, Adenocarcinoma); experiment: Cell viability analysis, breast cancer MCF7; details: Homo sapiens, MCF7, 72 h
[8] = test system: MKN-45 (Gastric Adenocarcinoma); experiment: Cell viability analysis, gastric cancer MKN-45; details: Homo sapiens, MKN-45, 72 h
[9] = test system: HeLa (Cervix Adenocarcinoma); experiment: Cell viability analysis, cervical cancer HeLa; details: Homo sapiens, HeLa, 72 h
[10] = test system: PC3 (p53−) (Prostate Adenocarcinoma); experiment: Cell viability analysis, prostate cancer PC3; details: Homo sapiens, 72 h
[11] = test system: A375 (Amelanotic Melanoma); experiment: Cell viability analysis, skin cancer A375; details: Homo sapiens, A-375, 72 h
[12] = test system: cancer cell lines; experiment: Cell viability analysis (WST-1) on cancer cell lines; details: drug 10 μM, 72 hours, WST-1; Table 3
[13] = test system: TSGH-8301 (Urinary Bladder Carcinoma); experiment: Cell viability analysis, bladder cancer TSGH-8301; details: Homo sapiens, 72 h
[14] = read-out: cell viability (survival rate), AGS, drug 10 μM, 72 hours, WST-1, OD450 nm
[15] = read-out: cell viability (survival rate), A549, drug 10 μM, 72 hours, WST-1, OD450 nm
[16] = read-out: cell viability (survival rate), HL-60, drug 10 μM, 72 hours, WST-1, OD450 nm
[17] = read-out: cell viability (survival rate), HepG2, drug 10 μM, 72 hours, WST-1, OD450 nm
[18] = read-out: cell viability (survival rate), H1650, drug 10 μM, 72 hours, WST-1, OD450 nm
[19] = read-out: cell viability (survival rate), MCF7, drug 10 μM, 72 hours, WST-1, OD450 nm
[20] = read-out: cell viability (survival rate), MKN-45, drug 10 μM, 72 hours, WST-1, OD450 nm
[21] = read-out: cell viability (survival rate), HeLa, drug 10 μM, 72 hours, WST-1, OD450 nm
[22] = read-out: cell viability (survival rate), PC3, drug 10 μM, 72 hours, WST-1, OD450 nm
[23] = read-out: cell viability (survival rate), A375, drug 10 μM, 72 hours, WST-1, OD450 nm
[24] = read-out: cell viability (survival rate), TSGH, drug 10 μM, 72 hours, WST-1, OD450 nm
[25] = drug 10 μM, 72 hours, WST-1, OD450 nm, read-out: cell viability (survival rate), AGS
[26] = drug 10 μM, 72 hours, WST-1, OD450 nm, read-out: cell viability (survival rate), A549
[27] = drug 10 μM, 72 hours, WST-1, OD450 nm, read-out: cell viability (survival rate), HL-60
[28] = drug 10 μM, 72 hours, WST-1, OD450 nm, read-out: cell viability (survival rate), HepG2
[29] = drug 10 μM, 72 hours, WST-1, OD450 nm, read-out: cell viability (survival rate), H1650
[30] = drug 10 μM, 72 hours, WST-1, OD450 nm, read-out: cell viability (survival rate), MCF7
[31] = drug 10 μM, 72 hours, WST-1, OD450 nm, read-out: cell viability (survival rate), MKN-45
[32] = drug 10 μM, 72 hours, WST-1, OD450 nm, read-out: cell viability (survival rate), HeLa
[33] = drug 10 μM, 72 hours, WST-1, OD450 nm, read-out: cell viability (survival rate), PC3
[34] = drug 10 μM, 72 hours, WST-1, OD450 nm, read-out: cell viability (survival rate), A375
[35] = drug 10 μM, 72 hours, WST-1, OD450 nm, read-out: cell viability (survival rate), TSGH

| Compound | viability at 10 µM [1, 14] | viability at 10 µM [2, 15] | viability at 10 µM [3, 16] | viability at 10 µM [4] | viability at 10 µM [5, 17] | viability at 10 µM [6, 18] | viability at 10 µM [7, 19] | viability at 10 µM [8, 20] | viability at 10 µM [9, 21] | viability at 10 µM [10, 22] | viability at 10 µM [11, 23] | inhibition effect on different cancer cell lines [12] | viability at 10 µM [13, 24] | viability at 10 µM [1, 25] | viability at 10 µM [2, 26] | viability at 10 µM [3, 27] | viability at 10 µM [5, 28] | viability at 10 µM [6, 29] | viability at 10 µM [7, 30] | viability at 10 µM [8, 31] | other results |
| --- | --- | --- | --- | --- | --- | --- | --- | --- | --- | --- | --- | --- | --- | --- | --- | --- | --- | --- | --- | --- | --- |
| Clc1ccc(CCC(Cn2ccnc2)Sc2c(Cl)cccc2Cl)cc1 (centres unmarked) [Butoconazole nitrate] | 78.7% | 89.6% | 41.3% | 112% | 114% | 78.2% | 72.9% | 48.7% | 131% | 57.1% | 102% | significant inhibition effect | 86% | – | – | – | – | – | – | – | – |
| NNC(=O)c1ccncc1 [Isoniazid (Tubizid), Isoniazid] | – | – | – | 71% | – | – | – | – | – | – | – | significant inhibition effect | – | 50.5% | 45.7% | 102% | 110% | 64.7% | 44.7% | 44.6% | viability at 10 µM [9, 32]: 77.9%; viability at 10 µM [10, 33]: 39.6%; viability at 10 µM [11, 34]: 54.9%; viability at 10 µM [13, 35]: 42.2% |
| Cc1ccnc2c1NC(=O)c1cccnc1N2C1CC1 [Nevirapine (Viramune), Nevirapine] | – | – | – | 85.7% | – | – | – | – | – | – | – | significant inhibition effect | – | 115% | 45.7% | 98.7% | 85.5% | 89.7% | 38.5% | 68.3% | viability at 10 µM [9, 32]: 58.9%; viability at 10 µM [10, 33]: 84.1%; viability at 10 µM [11, 34]: 66.8%; viability at 10 µM [13, 35]: 103% |
| O=C(C[S+]([O-])Cc1ccco1)NC/C=C\COc1cc(CN2CCCCC2)ccn1 (centres unmarked) [Lafutidine] | – | – | – | 48% | – | – | – | – | – | – | – | significant inhibition effect | – | 45.5% | 21.3% | 95.3% | 102% | 80.1% | 33.6% | 89.6% | viability at 10 µM [9, 32]: 46.9%; viability at 10 µM [10, 33]: 40.7%; viability at 10 µM [11, 34]: 116%; viability at 10 µM [13, 35]: 51.9% |
| CC[C@H](C)[C@H](N)C1=N[C@H](C(=O)N[C@@H](CC(C)C)C(=O)N[C@H](CCC(=O)O)C(=O)N[C@H](C(=O)N[C@H]2CCCCNC(=O)[C@H](CC(N)=O)NC(=O)[C@@H](CC(=O)O)NC(=O)[C@H](Cc3cnc[nH]3)NC(=O)[C@@H](Cc3ccccc3)NC(=O)[C@H]([C@@H](C)CC)NC(=O)[C@@H](CCCN)NC2=O)[C@@H](C)CC)CS1 [Bacitracin] ({Ileψ(thiazoline)Cys}-L[dE]IK[dOrn]I[dF]H[dD]N; lactam 4-C) | 61.4% | 51.4% | 85.9% | 69.9% | 86.4% | 65.4% | 41.4% | 46.9% | 68.4% | 70% | 54.7% | significant inhibition effect | 68.3% | – | – | – | – | – | – | – | – |
| CCCCCCCCCC(=O)N[C@@H](Cc1c[nH]c2ccccc12)C(=O)N[C@H](CC(N)=O)C(=O)N[C@@H](CC(=O)O)C(=O)N[C@@H]1C(=O)NCC(=O)N[C@@H](CCCN)C(=O)N[C@@H](CC(=O)O)C(=O)N[C@H](C)C(=O)N[C@@H](CC(=O)O)C(=O)NCC(=O)N[C@H](CO)C(=O)N[C@@H]([C@H](C)CC(=O)O)C(=O)N[C@@H](CC(=O)c2ccccc2N)C(=O)O[C@@H]1C [Daptomycin] | 63% | 74% | 108% | 90.9% | 95.9% | 76.3% | 85.3% | 92.1% | 114% | 79.7% | 81.2% | significant inhibition effect | 56.8% | – | – | – | – | – | – | – | – |
| O=C(O)CCNC(=O)c1ccccc1 [Betamipron] | 75.2% | 72.3% | 96.2% | 93.5% | 90.9% | 72.8% | 118% | 88.2% | 75.9% | 92.6% | 85.8% | significant inhibition effect | 85.4% | – | – | – | – | – | – | – | – |
| Cc1c(OCC(F)(F)F)ccnc1C[S+]([O-])c1nc2ccccc2[nH]1 (centres unmarked) [Lansoprazole] | – | – | – | 96.1% | – | – | – | – | – | – | – | significant inhibition effect | – | 71.5% | 84.5% | 78.6% | 72.3% | 45.5% | 141% | 74.5% | viability at 10 µM [9, 32]: 53.6%; viability at 10 µM [10, 33]: 94.2%; viability at 10 µM [11, 34]: 60.6%; viability at 10 µM [13, 35]: 109% |
| N#CC(c1ccc(Cl)cc1)c1c(Cl)cc(-n2ncc(=O)[nH]c2=O)cc1Cl (centres unmarked) [Diclazuril] | – | – | – | 78.4% | – | – | – | – | – | – | – | significant inhibition effect | – | 76.3% | 42.7% | 70.2% | 99.3% | 104% | 40.4% | 97.9% | viability at 10 µM [9, 32]: 76.1%; viability at 10 µM [10, 33]: 95.5%; viability at 10 µM [11, 34]: 84.5%; viability at 10 µM [13, 35]: 103% |
| C[C@@H]1[C@H](O)[C@@H](C)/C=C/C=C/C=C/C=C/C=C/C=C/C=C/[C@H](O[C@@H]2O[C@H](C)[C@@H](O)[C@H](N)[C@@H]2O)C[C@@H]2O[C@](O)(C[C@@H](O)C[C@@H](O)[C@H](O)CC[C@@H](O)C[C@@H](O)CC(=O)O[C@H]1C)C[C@H](O)[C@H]2C(=O)O [Amphotericin B (Abelcet), Amphotericin B] | 28.5% | 45% | 116% | 66.5% | 90.3% | 61.2% | 38.9% | 44% | 84.5% | 66.9% | 98.9% | significant inhibition effect | 56% | – | – | – | – | – | – | – | – |
| [H]/N=C(/N)N[C@H]1[C@H](O)[C@@H](O)[C@H](O[C@@H]2O[C@@H](C)[C@](O)(C=O)[C@H]2O[C@@H]2O[C@@H](CO)[C@H](O)[C@@H](O)[C@@H]2NC)[C@@H](N/C(N)=N\[H])[C@@H]1O [Streptomycin sulfate] | 65.5% | 57.3% | 93.3% | 46.6% | 84.5% | 40.6% | 72% | 68.7% | 88.9% | 59.1% | 77.5% | significant inhibition effect | 23.3% | – | – | – | – | – | – | – | – |
